Test results as given in patent US20230183237A1, “COMPETITIVE AND NONCOMPETITIVE INHIBITORS OF THE MUSCARINIC ACETYLCHOLINE RECEPTOR M5” (Vanderbilt University, priority 2020, published 2023).
pIC50: −log10 of the molar value.

Target: T1, hM5 (Homo sapiens, UniProt P08912)
T1 construct: expressed in transfected cells
T1 sequence (P08912 1-532): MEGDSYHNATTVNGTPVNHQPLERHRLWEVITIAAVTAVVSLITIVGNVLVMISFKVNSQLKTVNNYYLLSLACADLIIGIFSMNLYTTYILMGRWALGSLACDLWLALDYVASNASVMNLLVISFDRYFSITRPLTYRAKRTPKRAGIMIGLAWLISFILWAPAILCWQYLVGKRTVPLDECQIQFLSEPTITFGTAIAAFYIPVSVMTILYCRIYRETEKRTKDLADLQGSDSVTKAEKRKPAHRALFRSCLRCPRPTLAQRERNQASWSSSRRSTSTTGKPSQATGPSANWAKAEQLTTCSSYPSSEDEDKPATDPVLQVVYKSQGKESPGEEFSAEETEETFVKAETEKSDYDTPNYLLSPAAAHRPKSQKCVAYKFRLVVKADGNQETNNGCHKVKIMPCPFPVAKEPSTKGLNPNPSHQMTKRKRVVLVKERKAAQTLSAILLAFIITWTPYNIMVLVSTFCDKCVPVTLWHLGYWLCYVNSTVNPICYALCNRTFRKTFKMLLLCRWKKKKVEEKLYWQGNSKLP
Experiment: Calcium mobilization concentration-response (IC50 vs EC80 acetylcholine), CHO hM5
Type: cell-based
Details: CELL LINE hM5; calcium mobilization, EC80 acetylcholine addition; read-out: IC50
Method: Initial, single point (10 μM) compound characterization was performed in stable Chinese Hamster Ovary (CHO) cell lines constitutively expressing human M5 receptors. These were plated at 15,000 cells per 20 μL per well in Greiner 384-well black-walled, TC-treated, clear-bottomed plates (Fisher) in Ham's F12 medium supplemented with 10% FBS and 20 mM HEPES. Cells were incubated overnight at 37° C. under 5% CO2. The following day, medium was exchanged with assay buffer (Hank's Balanced Salt Solution supplemented with 20 mM HEPES and 2.5 mM Probenecid, pH 7.4) leaving 20 μL of assay buffer in each well. […] The cells were then incubated 50 minutes at 37° C. under 5% CO2. The assay buffer plus dye was then exchanged with fresh assay buffer leaving a volume of 20 μL in each well. Test compounds were diluted into assay buffer to a 2X (20 μM) concentration in 0.2% dimethylsulfoxide (DMSO) in columns 3-22 with matching DMSO concentration in columns 1, 2, 23, and […]; compounds were added to the assay for a final concentration of 10 μM and a final DMSO concentration of 0.1%.
Either an FDSS (Hamamatsu) or Panoptic (WaveFront Biosciences) kinetic imaging plate reader was used for assay execution and measurement of calcium flux. After establishing baseline fluorescence, test compounds (20 μL) were added to the cells using the reader's integrated pipettor and allowed to equilibrate for 140 seconds before addition of the […] concentration of acetylcholine (10 μL) along with vehicle in selected DMSO-only wells in the outer two columns . […] The raw fluorescence data from each well was normalized to the corresponding initial fluorescence reading (static ratio). The maximum fluorescence value following each addition was determined and the minimum value within that same timeframe was subtracted for each well then normalized to the average of the ECffiax maximum-minimum response, providing a % AChmax value for each addition for each well. The single point values represent mean values determined within the ECsu addition timeframe obtained from at least three independent determinations performed in triplicate or greater (error bars represent +/−SEM) unless otherwise specified.
CHO cells stably expressing hM1, hM2/Gqi5, hM3, hM4/Gqi5, hM5, rM1/Gqi5, rM3, rM4/Gqi5, or rM5 were plated in the manner described above. […] FDSS protocols were carried out as described above; the static ratio was calculated and the minimum response subtracted from the maximum response within the timeframe of each addition. This max-min response was then normalized to the maximum acetylcholine response. Calculation of IC50 was performed using the percent maximum acetylcholine response for the EC80 addition through the Vortex and Studies modules of the Dotmatics data management software. Results are stored in the Dotrnatics database and an audit trail of any changes to their analysis is generated. Data shown represent mean values obtained from at least three independent determinations performed in triplicate or greater (error bars represent±SEM) unless otherwise specified.

SMILES	pIC50
O=S(=O)(c1ccc2c(c1)CCO2)N1CCC(c2nc3ccccc3[nH]2)CC1 [Compound 3, 2-(1-((2,3-dihydrobenzofuran-5-yl)sulfonyl)piperidin-4-yl)-1H-benzo[d]imidazole]	< 5.00
O=S(=O)(c1ccc2c(c1)CCO2)N1CCC(c2cc(-c3ccco3)n[nH]2)CC1 [Compound 4, 1-((2,3-dihydrobenzofuran-5-yl)sulfonyl)-4-(3-(furan-2-yl)-1H-pyrazol-5-yl)piperidine]	< 5.00
O=S(=O)(c1ccc2c(c1)CCO2)N1CCC(c2nc3cc(F)ccc3[nH]2)CC1 [Compound 5, 2-(1-((2,3-dihydrobenzofuran-5-yl)sulfonyl)piperidin-4-yl)-5-fluoro-in-benzo[d]imidazole]	< 5.00
O=S(=O)(c1ccc2ncsc2c1)N1CCC(c2cc(-c3ccco3)n[nH]2)CC1 [Compound 6, 6-((4-(3-(furan-2-yl)-1H-pyrazol-5-yl)piperidin-1-yl)sulfonyl)benzo[d]thiazole]	< 5.00
Cn1cnc2cc(C3CCN(S(=O)(=O)c4ccc5c(c4)CCO5)CC3)ccc21 [Compound 7, 5-(1-((2,3-dihydrobenzofuran-5-yl)sulfonyl)piperidin-4-yl)-1-methyl-1H-benzo[d]imidazole]	< 5.00
Cn1cnc2cc(C3CCN(S(=O)(=O)c4ccc5ncsc5c4)CC3)ccc21 [Compound 8, 6-((4-(1-methyl-1-benzo[d]imidazol-5-yl)piperidin-1-yl)sulfonyl)benzo[d]thiazole]	< 5.00
O=S(=O)(c1ccc2ncsc2c1)N1CCC(c2cn3ccccc3n2)CC1 [Compound 9, 6-((4-(imidazo[1,2-a]pyridin-2-yl)piperidin-1-yl)sulfonyl)benzo[d]thiazole]	< 5.00
O=S(=O)(c1ccc2c(c1)CCO2)N1CCC(c2cn3ccccc3n2)CC1 [Compound 10, 2-(1-((2,3-dihydrobenzofuran-5-yl)sulfonyl)piperidin-4-yl)imidazo[1,2-a]pyridine]	5.64
O=S(=O)(c1ccc2ncsc2c1)N1CCC(c2nc3cccnc3s2)CC1 [Compound 11, 2-(1-(benzo[d]thiazol-6-ylsulfonyl)piperidin-4-yl)thiazolo[5,4-b]pyridine]	< 5.00
O=S(=O)(c1ccc2c(c1)CCO2)N1CCC(c2nc3cccnc3s2)CC1 [Compound 12, 2-(1-((2,3-dihydrobenzofuran-5-yl)sulfonyl)piperidin-4-yl)thiazolo[5,4-b]pyridine]	< 5.00
O=S(=O)(c1ccc2c(c1)CCO2)N1CCC(c2cc3ccncc3s2)CC1 [Compound 13, 2-(1-((2,3-dihydrobenzofuran-5-yl)sulfonyl)piperidin-4-yl)thieno[2,3-c]pyridine]	< 5.00
O=S(=O)(c1ccc2c(c1)CCO2)N1CCC(c2cc3cnccc3s2)CC1 [Compound 14, 2-(1-((2,3-dihydrobenzofuran-5-yl)sulfonyl)piperidin-4-yl)thieno[3,2-c]pyridine]	< 5.00
Cc1nc2[nH]ccc2nc1C1CCN(S(=O)(=O)c2ccc3c(c2)CCO3)CC1 [Compound 15, 2-(1-((2,3-dihydrobenzofuran-5-yl)sulfonyl)piperidin-4-yl)-3-methyl-5H-pyrrolo[2,3-b]pyrazine]	< 5.00
Cc1nc2[nH]ccc2nc1C1CCN(S(=O)(=O)c2ccc3ncsc3c2)CC1 [Compound 16, 6-((4-(3-methyl-5H-pyrrolo[2,3-b]pyrazin-2-yl)piperidin-1-yl)sulfonyl)benzo[d]thiazole]	< 5.00
Cc1cc2nccn2nc1C1CCN(S(=O)(=O)c2ccc3c(c2)CCO3)CC1 [Compound 17, 6-(1-((2,3-dihydrobenzofuran-5-yl)sulfonyl)piperidin-4-yl)-7-methylimidazo[1,2-b]pyridazine]	6.08
Cc1cn2cc(C3CCN(S(=O)(=O)c4ccc5c(c4)CCO5)CC3)ncc2n1 [Compound 18, 6-(1-((2,3-dihydrobenzofuran-5-yl)sulfonyl)piperidin-4-yl)-2-methylimidazo[1,2-a]pyrazine]	< 5.00

SMILES	pIC50
O=S(=O)(c1ccc2ncsc2c1)N1CCC(c2cc3[nH]ncc3cn2)CC1 [Compound 19, 6-((4-(1H-pyrazolo[4,3-c]pyridin-6-yl)piperidin-1-yl)sulfonyl)benzo[d]thiazole]	< 5.00
O=S(=O)(c1ccc2ncccc2c1)N1CCC(c2cc3[nH]ncc3cn2)CC1 [Compound 20, 6-((4-(1H-pyrazolo[4,3-c]pyridin-6-yl)piperidin-1-yl)sulfonyl)quinoline]	< 5.00
O=S(=O)(c1ccc2c(c1)CCO2)N1CCC(c2cc3cc[nH]c3nn2)CC1 [Compound 21, 3-(1-((2,3-dihydrobenzofuran-5-yl)sulfonyl)piperidin-4-yl)-7H-pyrrolo[2,3-c]pyridazine]	5.66
O=S(=O)(c1ccc2ncsc2c1)N1CCC(c2cc3cc[nH]c3nn2)CC1 [Compound 22, 6-((4-(7H-pyrrolo[2,3-c]pyridazin-3-yl)piperidin-1-yl)sulfonyl)benzo[d]thiazole]	5.59
O=S(=O)(c1ccc2ncccc2c1)N1CCC(c2cc3cc[nH]c3nn2)CC1 [Compound 23, 6-((4-(7H-pyrrolo[2,3-c]pyridazin-3-yl)piperidin-1-yl)sulfonyl)quinoline]	5.59
O=S(=O)(c1ccc2c(c1)CCO2)N1CCC(c2cc3cc[nH]c3cn2)CC1 [Compound 24, 5-(1-((2,3-dihydrobenzofuran-5-yl)sulfonyl)piperidin-4-yl)-1H-pyrrolo[2,3-c]pyridine]	< 5.00
O=S(=O)(c1ccc2ncsc2c1)N1CCC(c2cc3cc[nH]c3cn2)CC1 [Compound 25, 6-((4-(1H-pyrrolo[2,3-c]pyridin-5-yl)piperidin-1-yl)sulfonyl)benzo[d]thiazole]	< 5.00
O=S(=O)(c1ccc2ncccc2c1)N1CCC(c2cc3cc[nH]c3cn2)CC1 [Compound 26, 6-((4-(1H-pyrrolo[2,3-c]pyridin-5-yl)piperidin-1-yl)sulfonyl)quinoline]	< 5.00
O=S(=O)(c1ccc2c(c1)CCO2)N1CCC(c2cn3ccnc3cn2)CC1 [Compound 27, 6-(1-((2,3-dihydrobenzofuran-5-yl)sulfonyl)piperidin-4-yl)imidazo[1,2-a]pyrazine]	< 5.00
O=S(=O)(c1ccc2c(c1)CCO2)N1CCC(c2ccc3occc3n2)CC1 [Compound 28, 5-(1-((2,3-dihydrobenzofuran-5-yl)sulfonyl)piperidin-4-yl)furo[3,2-b]pyridine]	< 5.00
O=S(=O)(c1ccc2c(c1)CCO2)N1CCC(c2cc3[nH]ccc3cn2)CC1 [Compound 29, 6-(1-((2,3-dihydrobenzofuran-5-yl)sulfonyl)piperidin-4-yl)-1H-pyrrolo[3,2-c]pyridine]	5.70
O=S(=O)(c1ccc2ncsc2c1)N1CCC(c2cc3[nH]ccc3cn2)CC1 [Compound 30, 6-((4-(1H-pyrrolo[3,2-c]pyridin-6-yl)piperidin-1-yl)sulfonyl)benzo[d]thiazole]	< 5.00
O=S(=O)(c1ccc2ncccc2c1)N1CCC(c2cc3[nH]ccc3cn2)CC1 [Compound 31, 6-((4-(1H-pyrrolo[3,2-c]pyridin-6-yl)piperidin-1-yl)sulfonyl)quinoline]	< 5.00
O=S(=O)(c1ccc2c(c1)CCO2)N1CCC(c2ncc3cc[nH]c3n2)CC1 [Compound 33, 2-(1-((2,3-dihydrobenzofuran-5-yl)sulfonyl)piperidin-4-yl)-7H-pyrrolo[2,3-d]pyrimidine]	< 5.00
Cc1cc2nccn2nc1C1=CCN(S(=O)(=O)c2ccc3c(c2)CCO3)CC1 [Compound 34, 6-(1-((2,3-dihydrobenzofuran-5-yl)sulfonyl)-1,2,3,6-tetrahydropyridin-4-yl)-7-methylimidazo[1,2-b]pyridazine]	< 5.00
